# Measurements: ChEMBL document CHEMBL1201862, “PubChem BioAssay data set” (2004)
# Activity calls are given as the source filed them.
# What was measured:
# [1] = HIV-1 Vif–A3G interaction blockers – biochemical, TR-FRET, GST-Vif 1-94, biotin-A3G peptide, dose response retest, primary screen (AID 1117319); assay type: functional;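 note: TR-FRET signal of purified GST-Vif binding a biotinylated A3G peptide; inhibitors lower the FRET signal by blocking Vif and A3G binding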
# [2] = target: T1, Oxysterols receptor LXR-beta (Homo sapiens, UniProt P55055); assay type: functional, cell-based;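 note: agonist activity at LXR measured by a cell-based luminescence readout across a dose range, run as a counterscreen for daf-12 agonists; HEK293 cells with Gal4-LXR fusion and GAL4-driven luciferase reporter; potency for activation of Gal4-LXR reporter so compounds are agonists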
# T1 sequence (P55055 whole entry): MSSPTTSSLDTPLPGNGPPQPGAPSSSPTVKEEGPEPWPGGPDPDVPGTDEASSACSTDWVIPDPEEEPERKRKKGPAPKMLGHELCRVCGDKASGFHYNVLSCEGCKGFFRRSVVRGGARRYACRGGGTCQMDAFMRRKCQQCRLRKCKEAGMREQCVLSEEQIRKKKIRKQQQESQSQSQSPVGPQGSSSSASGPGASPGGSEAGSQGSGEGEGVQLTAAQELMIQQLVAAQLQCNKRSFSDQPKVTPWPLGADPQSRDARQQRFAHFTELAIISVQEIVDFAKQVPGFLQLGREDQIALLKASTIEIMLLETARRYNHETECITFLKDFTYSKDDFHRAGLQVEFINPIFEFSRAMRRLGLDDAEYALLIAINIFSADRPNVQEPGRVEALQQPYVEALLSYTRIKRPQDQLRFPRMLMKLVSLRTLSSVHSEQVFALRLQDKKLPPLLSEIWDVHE
# Protein skinhead-1 = target: T2, Protein skinhead-1 (Caenorhabditis elegans, UniProt P34707); assay type: functional
# T2 sequence (P34707 whole entry): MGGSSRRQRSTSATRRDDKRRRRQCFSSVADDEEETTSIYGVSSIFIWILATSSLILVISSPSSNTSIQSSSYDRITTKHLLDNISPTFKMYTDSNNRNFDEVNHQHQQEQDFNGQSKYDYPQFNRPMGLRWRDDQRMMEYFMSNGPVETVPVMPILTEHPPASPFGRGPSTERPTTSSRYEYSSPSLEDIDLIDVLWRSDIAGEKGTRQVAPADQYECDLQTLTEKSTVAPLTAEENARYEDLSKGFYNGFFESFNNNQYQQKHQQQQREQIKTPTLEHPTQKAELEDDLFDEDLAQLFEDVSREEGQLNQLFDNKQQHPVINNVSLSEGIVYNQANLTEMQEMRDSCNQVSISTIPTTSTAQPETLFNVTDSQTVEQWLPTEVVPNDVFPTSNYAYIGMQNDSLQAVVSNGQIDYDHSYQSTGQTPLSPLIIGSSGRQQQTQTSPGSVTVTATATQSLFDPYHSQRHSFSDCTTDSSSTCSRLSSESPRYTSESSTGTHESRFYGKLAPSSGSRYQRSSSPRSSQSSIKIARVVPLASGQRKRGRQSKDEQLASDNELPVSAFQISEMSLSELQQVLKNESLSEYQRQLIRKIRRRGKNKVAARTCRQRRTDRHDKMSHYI
# HEK293 = test: EBV LMP1 TES2 canonical NF-kB signalling blockers – cell-based, HEK293, luciferase, cherry-pick, dose response (AID 588343); assay type: functional; details: Homo sapiens
# [3] = target: Peroxisome proliferator-activated receptor gamma/Nuclear receptor coactivator 3 (Homo sapiens, UniProt P37231); assay type: functional;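 note: agonist potency for raising coactivator recruitment to the receptor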
# [4] = target: Peroxisome proliferator-activated receptor gamma/Nuclear receptor coactivator 1 (Homo sapiens, UniProt P37231); assay type: functional;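 note: agonist potency as compounds enhance coactivator SRC-1 recruitment to PPARgamma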
# [5] = target: Peroxisome proliferator-activated receptor gamma/Nuclear receptor coactivator 2 (Homo sapiens, UniProt P37231); assay type: functional;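 note: agonist potency for raising coactivator recruitment to the receptor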
# [6] = viability loss in THP-1 monocytes – THP-1 cells, cytotoxicity control for Vif-APOBEC3G degradation inhibitor project, dose response (AID 1117359); assay type: functional; details: THP-1
# HT-1080 = test: HT1080 cell viability loss – fluorescence readout (AID 620); assay type: functional, cell-based; details: Homo sapiens
# [7] = target: Luciferin 4-monooxygenase (Photinus pyralis, UniProt P08659); test: Counter Screen for Luciferase-based Assay Positives. [Related pubchem assays: 620, 618, 411 ]
# [8] = target: T3, COUP transcription factor 2 (Homo sapiens, UniProt P24468); test: Luminescence-based cell-based high throughput dose response assay to identify inhibitors of COUP-TFII (NR2F2).; assay type: functional;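 note: HEK293 cells transiently cotransfected with COUP-TFII expression vector and reporter; luciferase reporter luminescence driven by COUP-TFII from the pX2-168 reporter plasmid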
# T3 sequence (P24468 whole entry): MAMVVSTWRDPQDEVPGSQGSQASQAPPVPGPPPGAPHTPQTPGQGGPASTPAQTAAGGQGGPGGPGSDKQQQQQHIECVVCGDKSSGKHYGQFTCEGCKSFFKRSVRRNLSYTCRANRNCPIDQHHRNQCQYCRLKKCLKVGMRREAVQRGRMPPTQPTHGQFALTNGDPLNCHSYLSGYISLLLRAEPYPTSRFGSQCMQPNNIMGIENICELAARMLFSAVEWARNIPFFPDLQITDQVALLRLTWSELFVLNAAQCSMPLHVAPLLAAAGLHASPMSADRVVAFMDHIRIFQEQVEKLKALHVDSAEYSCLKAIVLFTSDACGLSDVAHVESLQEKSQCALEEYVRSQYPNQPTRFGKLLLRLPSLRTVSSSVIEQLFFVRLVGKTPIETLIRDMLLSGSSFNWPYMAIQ
# Vero = test: cells; assay type: functional; details: Chlorocebus sabaeus
# Paired box protein Pax-8 = Paired box protein Pax-8 (Homo sapiens, UniProt Q06710); test: PAX8 transcriptional activity inhibition in RMG-I – RMG-I cells, luciferase, cherry-pick, dose response (AID 687027); assay type: functional, cell-based;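 note: luciferase reporter driven by Pax8 target thyroperoxidase promoter measured by SteadyGlo luminescence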
# [9] = OVCAR8 cell viability loss – plate reader, dry powder samples, PAX8 project, dose response (AID 743197); assay type: functional, cell-based; details: OVCAR-8
# [10] = target: T4, Replicative DNA helicase DnaB (Mycobacterium tuberculosis, UniProt P9WMR3); test: DnaB intein splicing inhibitors, dose response, biochemical, cell-free fluorescence (AID 449749); assay type: functional
# T4 sequence (P9WMR3 whole entry): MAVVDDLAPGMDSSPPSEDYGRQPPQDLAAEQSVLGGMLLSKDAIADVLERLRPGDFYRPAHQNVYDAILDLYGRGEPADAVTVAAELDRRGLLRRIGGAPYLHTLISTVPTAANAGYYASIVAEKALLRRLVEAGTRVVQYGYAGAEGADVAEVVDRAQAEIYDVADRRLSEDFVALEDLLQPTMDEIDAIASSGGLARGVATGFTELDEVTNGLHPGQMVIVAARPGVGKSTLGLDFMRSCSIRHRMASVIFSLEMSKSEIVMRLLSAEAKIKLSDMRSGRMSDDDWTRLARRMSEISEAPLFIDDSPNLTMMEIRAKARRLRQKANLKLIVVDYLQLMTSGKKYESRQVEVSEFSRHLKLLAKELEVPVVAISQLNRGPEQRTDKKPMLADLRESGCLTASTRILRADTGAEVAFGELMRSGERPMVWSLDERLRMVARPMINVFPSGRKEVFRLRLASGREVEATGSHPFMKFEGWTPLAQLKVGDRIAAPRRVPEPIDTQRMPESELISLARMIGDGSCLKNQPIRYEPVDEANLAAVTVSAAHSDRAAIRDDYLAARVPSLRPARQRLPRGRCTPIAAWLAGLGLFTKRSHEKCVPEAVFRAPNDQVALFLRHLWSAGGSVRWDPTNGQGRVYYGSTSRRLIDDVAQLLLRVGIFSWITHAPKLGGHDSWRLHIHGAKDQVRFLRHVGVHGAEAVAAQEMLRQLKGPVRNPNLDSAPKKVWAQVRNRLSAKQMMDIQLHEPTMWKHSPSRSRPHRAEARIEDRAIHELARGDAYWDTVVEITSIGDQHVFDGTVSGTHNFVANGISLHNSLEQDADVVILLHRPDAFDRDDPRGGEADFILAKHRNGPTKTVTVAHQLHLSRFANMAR
# [11] = target: T5, Tyrosyl-DNA phosphodiesterase 2 (Homo sapiens, UniProt O95551); test: potency against TDP2 phosphodiesterase activity – biochemical, epi absorbance, IC50, dose response (AID 743297)
# T5 sequence (O95551 whole entry): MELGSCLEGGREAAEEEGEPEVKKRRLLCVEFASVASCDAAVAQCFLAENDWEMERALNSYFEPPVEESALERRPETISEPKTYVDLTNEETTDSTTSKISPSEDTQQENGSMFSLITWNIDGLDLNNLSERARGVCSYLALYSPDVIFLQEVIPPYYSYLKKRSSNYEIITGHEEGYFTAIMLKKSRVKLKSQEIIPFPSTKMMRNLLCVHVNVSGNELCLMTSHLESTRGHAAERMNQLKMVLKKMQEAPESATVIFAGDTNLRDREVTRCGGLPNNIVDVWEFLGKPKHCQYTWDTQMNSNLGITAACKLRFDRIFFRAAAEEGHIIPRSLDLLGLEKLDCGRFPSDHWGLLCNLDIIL
# Protein RecA = target: T6, Protein RecA (Mycobacterium tuberculosis, UniProt P9WHJ3); test: Fluorescence Cell-Free Homogeneous Dose Retest to Identify Inhibitors of RecA-Intein Splicing Activity. [Related pubchem assays (depositor defined):AID2097, AID2223, AID489010, AID492950]; assay type: functional
# T6 sequence (P9WHJ3 whole entry): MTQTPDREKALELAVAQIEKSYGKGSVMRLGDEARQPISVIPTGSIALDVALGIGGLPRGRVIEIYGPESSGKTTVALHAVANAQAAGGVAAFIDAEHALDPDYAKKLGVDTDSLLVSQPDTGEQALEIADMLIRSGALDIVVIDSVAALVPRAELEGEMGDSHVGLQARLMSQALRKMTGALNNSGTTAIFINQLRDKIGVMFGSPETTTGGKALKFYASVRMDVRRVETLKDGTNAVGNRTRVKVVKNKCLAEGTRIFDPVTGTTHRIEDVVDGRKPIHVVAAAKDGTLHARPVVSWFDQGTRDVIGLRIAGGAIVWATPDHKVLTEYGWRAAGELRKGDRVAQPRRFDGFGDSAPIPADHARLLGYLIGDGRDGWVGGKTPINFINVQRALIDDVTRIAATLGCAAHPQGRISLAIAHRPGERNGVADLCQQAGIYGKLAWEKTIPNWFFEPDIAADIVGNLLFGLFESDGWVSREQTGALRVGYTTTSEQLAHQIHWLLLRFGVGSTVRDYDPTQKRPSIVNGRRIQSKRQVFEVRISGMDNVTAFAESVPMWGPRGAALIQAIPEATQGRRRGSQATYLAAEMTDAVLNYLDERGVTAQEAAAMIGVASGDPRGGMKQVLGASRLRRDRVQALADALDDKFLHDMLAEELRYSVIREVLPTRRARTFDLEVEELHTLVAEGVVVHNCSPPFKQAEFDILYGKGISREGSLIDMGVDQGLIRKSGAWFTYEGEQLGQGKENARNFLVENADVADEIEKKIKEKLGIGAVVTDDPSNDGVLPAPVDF
# [12] = P. falciparum Dd2 growth inhibitors, dose response, SYBR Green, cherry-picked samples (AID 1159567); assay type: functional, cell-based
# Peroxisome proliferator-activated receptor gamma/Nuclear receptor coactivator 1, sequence (P37231 whole entry): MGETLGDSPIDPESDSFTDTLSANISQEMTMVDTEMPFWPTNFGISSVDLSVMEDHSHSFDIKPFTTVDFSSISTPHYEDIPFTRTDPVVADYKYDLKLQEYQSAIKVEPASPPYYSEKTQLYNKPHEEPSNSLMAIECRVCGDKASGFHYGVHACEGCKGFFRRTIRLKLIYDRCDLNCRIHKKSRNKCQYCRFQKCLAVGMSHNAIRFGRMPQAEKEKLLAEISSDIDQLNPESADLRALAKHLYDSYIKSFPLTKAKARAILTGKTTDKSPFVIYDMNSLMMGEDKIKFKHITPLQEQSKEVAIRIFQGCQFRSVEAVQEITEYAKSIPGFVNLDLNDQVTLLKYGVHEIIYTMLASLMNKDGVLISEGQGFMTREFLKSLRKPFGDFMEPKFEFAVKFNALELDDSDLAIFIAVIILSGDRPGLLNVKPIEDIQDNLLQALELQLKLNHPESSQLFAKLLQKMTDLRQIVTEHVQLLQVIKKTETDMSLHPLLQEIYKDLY
# Peroxisome proliferator-activated receptor gamma/Nuclear receptor coactivator 1, sequence (Q15788 whole entry, further chain): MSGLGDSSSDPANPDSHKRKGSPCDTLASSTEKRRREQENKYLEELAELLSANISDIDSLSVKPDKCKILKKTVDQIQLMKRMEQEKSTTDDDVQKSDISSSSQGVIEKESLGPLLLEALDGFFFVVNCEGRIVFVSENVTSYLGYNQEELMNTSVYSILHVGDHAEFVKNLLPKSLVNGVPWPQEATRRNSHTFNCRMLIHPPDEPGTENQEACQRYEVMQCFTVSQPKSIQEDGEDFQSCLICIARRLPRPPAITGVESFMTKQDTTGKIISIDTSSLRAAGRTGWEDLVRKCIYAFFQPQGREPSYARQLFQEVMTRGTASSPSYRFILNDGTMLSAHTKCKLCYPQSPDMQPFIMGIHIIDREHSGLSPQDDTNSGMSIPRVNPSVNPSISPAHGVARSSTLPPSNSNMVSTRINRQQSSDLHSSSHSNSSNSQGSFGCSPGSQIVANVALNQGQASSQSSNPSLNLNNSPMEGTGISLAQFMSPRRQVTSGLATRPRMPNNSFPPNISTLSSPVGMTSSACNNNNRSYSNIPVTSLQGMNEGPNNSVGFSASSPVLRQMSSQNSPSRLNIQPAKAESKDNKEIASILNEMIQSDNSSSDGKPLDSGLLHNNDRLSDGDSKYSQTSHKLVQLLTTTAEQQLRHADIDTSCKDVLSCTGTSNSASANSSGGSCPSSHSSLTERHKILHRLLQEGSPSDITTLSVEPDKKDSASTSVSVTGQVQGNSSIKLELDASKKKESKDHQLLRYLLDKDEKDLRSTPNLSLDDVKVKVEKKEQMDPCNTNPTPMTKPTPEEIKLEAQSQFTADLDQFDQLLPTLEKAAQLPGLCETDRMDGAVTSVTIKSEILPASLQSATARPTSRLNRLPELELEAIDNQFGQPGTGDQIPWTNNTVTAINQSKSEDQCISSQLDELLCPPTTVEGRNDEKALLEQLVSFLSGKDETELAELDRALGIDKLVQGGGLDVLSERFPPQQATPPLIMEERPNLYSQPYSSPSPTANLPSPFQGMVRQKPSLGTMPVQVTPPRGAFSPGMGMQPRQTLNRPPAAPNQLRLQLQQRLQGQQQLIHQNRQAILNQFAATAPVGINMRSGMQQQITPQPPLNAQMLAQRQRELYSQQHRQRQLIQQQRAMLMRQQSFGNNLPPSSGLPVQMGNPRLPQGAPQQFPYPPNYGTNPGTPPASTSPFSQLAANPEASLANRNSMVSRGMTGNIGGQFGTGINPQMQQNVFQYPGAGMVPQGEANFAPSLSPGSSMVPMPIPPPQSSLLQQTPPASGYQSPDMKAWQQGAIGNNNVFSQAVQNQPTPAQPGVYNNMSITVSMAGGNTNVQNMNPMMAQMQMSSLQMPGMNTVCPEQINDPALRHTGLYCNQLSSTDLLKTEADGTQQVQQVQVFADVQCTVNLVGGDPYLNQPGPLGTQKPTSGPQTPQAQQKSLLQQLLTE
# Peroxisome proliferator-activated receptor gamma/Nuclear receptor coactivator 2, sequence (P37231 whole entry): as the sequence (P37231 whole entry) above
# Peroxisome proliferator-activated receptor gamma/Nuclear receptor coactivator 2, sequence (Q15596 whole entry, further chain): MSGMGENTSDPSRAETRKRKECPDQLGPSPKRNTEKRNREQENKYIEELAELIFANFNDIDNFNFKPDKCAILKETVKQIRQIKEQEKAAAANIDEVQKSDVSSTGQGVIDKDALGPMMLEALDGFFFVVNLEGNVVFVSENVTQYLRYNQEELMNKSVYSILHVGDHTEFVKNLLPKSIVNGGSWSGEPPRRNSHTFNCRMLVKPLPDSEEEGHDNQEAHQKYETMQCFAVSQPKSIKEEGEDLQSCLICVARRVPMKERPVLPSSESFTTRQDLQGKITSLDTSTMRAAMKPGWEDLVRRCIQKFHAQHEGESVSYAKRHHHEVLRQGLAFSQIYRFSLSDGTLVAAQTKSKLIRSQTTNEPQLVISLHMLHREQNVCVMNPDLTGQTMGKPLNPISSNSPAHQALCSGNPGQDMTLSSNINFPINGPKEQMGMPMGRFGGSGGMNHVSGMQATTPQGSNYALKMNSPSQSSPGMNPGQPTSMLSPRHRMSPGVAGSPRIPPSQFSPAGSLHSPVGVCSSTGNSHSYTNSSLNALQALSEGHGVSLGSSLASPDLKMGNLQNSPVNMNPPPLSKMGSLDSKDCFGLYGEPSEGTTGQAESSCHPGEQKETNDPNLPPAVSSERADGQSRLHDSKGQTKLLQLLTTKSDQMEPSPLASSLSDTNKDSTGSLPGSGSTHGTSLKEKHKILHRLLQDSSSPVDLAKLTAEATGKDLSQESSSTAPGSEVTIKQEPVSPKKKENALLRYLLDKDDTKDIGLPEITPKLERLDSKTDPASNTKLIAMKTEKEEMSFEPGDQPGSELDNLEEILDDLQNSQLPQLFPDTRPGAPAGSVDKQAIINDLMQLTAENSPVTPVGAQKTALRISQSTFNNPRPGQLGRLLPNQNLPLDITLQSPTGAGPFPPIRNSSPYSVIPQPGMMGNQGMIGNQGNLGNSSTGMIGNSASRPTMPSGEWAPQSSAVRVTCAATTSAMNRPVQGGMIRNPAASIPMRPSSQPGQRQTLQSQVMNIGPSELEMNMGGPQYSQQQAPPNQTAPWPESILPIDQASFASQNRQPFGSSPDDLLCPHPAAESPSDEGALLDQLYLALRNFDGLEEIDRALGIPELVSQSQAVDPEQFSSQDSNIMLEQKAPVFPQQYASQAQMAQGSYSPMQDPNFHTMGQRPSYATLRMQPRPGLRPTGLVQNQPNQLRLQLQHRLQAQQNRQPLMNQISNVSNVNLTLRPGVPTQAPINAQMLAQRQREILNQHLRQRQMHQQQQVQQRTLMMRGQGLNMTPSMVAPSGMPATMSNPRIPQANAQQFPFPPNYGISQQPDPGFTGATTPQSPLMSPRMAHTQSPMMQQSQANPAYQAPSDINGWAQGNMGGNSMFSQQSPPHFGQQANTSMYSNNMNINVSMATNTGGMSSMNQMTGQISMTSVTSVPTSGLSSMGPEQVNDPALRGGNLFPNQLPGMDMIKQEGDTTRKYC
# Luciferin 4-monooxygenase, sequence (P08659 whole entry): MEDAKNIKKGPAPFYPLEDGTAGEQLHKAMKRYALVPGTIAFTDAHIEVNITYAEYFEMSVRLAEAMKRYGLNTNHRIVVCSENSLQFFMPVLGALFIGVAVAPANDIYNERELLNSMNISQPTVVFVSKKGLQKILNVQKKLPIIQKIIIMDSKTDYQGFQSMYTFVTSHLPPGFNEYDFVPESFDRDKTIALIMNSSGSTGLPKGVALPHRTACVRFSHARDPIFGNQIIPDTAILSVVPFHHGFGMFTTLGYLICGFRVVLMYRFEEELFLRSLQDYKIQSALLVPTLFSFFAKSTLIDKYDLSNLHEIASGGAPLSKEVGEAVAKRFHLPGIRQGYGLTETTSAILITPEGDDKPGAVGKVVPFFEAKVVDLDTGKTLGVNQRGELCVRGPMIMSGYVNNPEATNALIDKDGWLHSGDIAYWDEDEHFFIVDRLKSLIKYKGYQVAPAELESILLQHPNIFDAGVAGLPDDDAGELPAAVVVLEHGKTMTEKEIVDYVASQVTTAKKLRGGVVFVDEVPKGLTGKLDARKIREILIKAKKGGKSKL
# Paired box protein Pax-8, sequence (Q06710 whole entry): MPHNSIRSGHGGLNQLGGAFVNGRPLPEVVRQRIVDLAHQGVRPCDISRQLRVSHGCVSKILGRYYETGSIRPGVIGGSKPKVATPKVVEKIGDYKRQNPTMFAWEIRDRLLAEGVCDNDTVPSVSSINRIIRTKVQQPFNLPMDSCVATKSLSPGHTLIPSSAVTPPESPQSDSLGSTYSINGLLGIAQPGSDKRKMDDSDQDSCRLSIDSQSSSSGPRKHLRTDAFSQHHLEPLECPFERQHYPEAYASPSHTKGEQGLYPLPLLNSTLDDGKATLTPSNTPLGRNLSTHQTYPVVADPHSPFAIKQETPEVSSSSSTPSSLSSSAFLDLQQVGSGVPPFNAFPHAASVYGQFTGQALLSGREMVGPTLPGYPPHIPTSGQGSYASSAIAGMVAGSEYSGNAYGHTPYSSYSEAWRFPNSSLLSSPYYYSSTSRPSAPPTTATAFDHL
structure (smiles),measurement,setting,value
COc1ccccc1C(=O)Nc1ccc(-c2nnc(SCC(=O)O)n2C)cc1,IC50,[1],> 100 µM (active)
FC(F)(F)c1cc(Cl)c2nc(-c3ccccc3)cn2c1,EC50,[2],> 67.5 µM (inactive)
same,IC50,Protein skinhead-1,> 100 µM (inactive)
CCc1cc(C(=O)Nc2ncccc2O)sc1C,EC50,[2],> 67.5 µM (inactive)
same,AC50,HEK293,4.64 µM (active)
O=C1OCCC1Sc1nnc(-c2ccc(Br)cc2)o1 (centres undefined),EC50,[3],> 79.4 µM (not active)
same,EC50,[4],> 79.4 µM (not active)
same,EC50,[5],75.3 µM (not active)
Cc1c(C=O)c2ccccc2n1Cc1ccc(F)cc1,CC50,[6],> 40 µM (active)
CC(=O)Nc1ccc2oc(-c3cc(F)c(F)cc3Cl)nc2c1,EC50,HT-1080,> 50 µM (not active)
same,EC50,[7],16.2 µM (active)
O=C(c1ccccc1)c1cnc(-c2ccc(Cl)cc2)s1,EC50,[3],21.4 µM (not active)
same,EC50,[4],14.4 µM (not active)
same,EC50,[5],11.9 µM (not active)
CCn1c(SCC(=O)Nc2ccccc2C)nnc1-c1ccccc1O,EC50,HT-1080,> 50 µM (not active)
same,EC50,[7],> 100 µM (not active)
COc1ccc(F)cc1S(=O)(=O)Nc1cc2c3c(c1)CC(=O)N3CCC2,CC50,[6],> 40 µM (active)
Cc1n[nH]c(C(F)(F)F)c1N=NN1CCOCC1,IC50,[8],15.5 µM (inactive)
same,CC50,Vero,6.78 µM (active)
CCS(=O)(=O)N1CCC(C(=O)NCc2ccccn2)CC1,IC50,[1],> 100 µM (active)
CC(C)CNc1ncnc2c1ncn2[C@H]1CN(Cc2ccc(-c3ccccc3)cc2)C[C@@H](CO)O1,IC50,[8],9.84 µM (active)
COc1ccccc1NC(=O)COC(=O)c1c(NC(C)=O)sc(C)c1C,CC50,[6],> 40 µM (active)
COc1ccc(CN(C)C[C@@H]2OCCCC[C@H](C)Oc3ccc(NC(=O)Nc4cccc5ccccc45)cc3C(=O)N([C@H](C)CO)C[C@H]2C)cc1,AC50,Paired box protein Pax-8,69.6 µM (active)
same,AC50,[9],> 70 µM (inactive)
COc1ccccc1/C=N\N=C(\N)c1ccccn1,EC50,[2],> 67.6 µM (inactive)
Oc1ccc(/N=C/c2sc3ccccc3c2Cl)cc1,AC50,[10],137 µM (active)
same,IC50,[11],> 128 µM (inactive)
same,EC50,Protein RecA,> 380 µM (inactive)
COc1ccc(C#Cc2ccc([C@H]3[C@@H](CO)N4CCCCN(C(=O)Nc5ccccc5F)C[C@@H]34)cc2)cc1,AC50,[12],5.66 µM (active)
